The values below come from patent publication US6500842B1, “8-hydroxy-7-substituted quinolines as anti-viral agents” (Pharmacia & Upjohn Company, priority 1996, dated 2002).

The experiment has as its target T1, HCMV polymerase (Human cytomegalovirus, UniProt P08546).
T1 construct: made in house; host or cells: recombinant baculovirus-infected SF-9 cells
As to the kind of experiment: HCMV polymerase assay (scintillation proximity assay). Type of experiment: biochemical. How it is done: The HCMV polymerase assay is performed using a scintillation proximity assay (SPA) as described in several references, such as N. D. Cook, et al., Pharmaceutical Manufacturing International, pages 49-53 (1992); K. Takeuchi, Laboratory Practice, September issue (1992); U.S. Pat. No. 4,568,649 (1986); which are incorporated by reference herein. Reactions are performed in 96-well plates. The assay is conducted in 100 μl volume with 5.4 mM HEPES (pH 7.5), 11.7 mM KCl, 4.5 mM MgCl2, 0.36 mg/ml BSA, and 90 nM ^3H-dTTP. Assays are run with and without CHAPS, (3-[(3-Cholamidopropyl)-dimethylammonio]-1-propane-sulfonate) at a final concentration of 2 mM. HCMV is diluted in enzyme dilution buffer containing 50% glycerol, 250 mM NaCl, 10 mM HEPES (pH 7.5), 100 pg/ml BSA, and 0.01% sodium azide. The HCMV polymerase, which is expressed in recombinant baculovirus-infected SF-9 cells and purified according to literature procedures, is added at 10% (or 10 μl) of the final reaction volume, i.e., 100 μl. Compounds are diluted in 50% DMSO and 10 μl are added to each well. Control wells contain an equivalent concentration of DMSO. Unless noted otherwise, reactions are initiated via the addition of 6 nM biotinylated poly(dA)-oligo(dT) template/primer to reaction mixtures containing the enzyme, substrate, and compounds of interest. Plates are incubated in a 25° C. of 37° C. H2O bath and terminated via the addition of 40 μl/reaction of 0.5 M EDTA (pH 8) per well. Reactions are terminated within the time-frame during which substrate incorporation is linear and varied depending upon the enzyme and conditions used, i.e., 30 min. for HCMV polymerase. Ten μl of streptavidin-SPA beads (20 mg/ml in PBS/10% glycerol) are added following termination of the reaction. Plates are incubated 10 min. at 37° C., then equilibrated to room temperature, and counted on a Packard Topcount. Linear regressions are performed and IC50's are calculated using computer software. Results of the testing of compounds of the present invention in this assay are shown in Tables 1, 2, 5, 9, 10, 11, 13 (except for the last compound which was tested under modified conditions) and 14 below.
For orientation: Scintillation proximity formats need no separation of bound from free tracer.

[1] abbreviates: pol type CMV, Table 2, read-out: IC50.
The mark [2] stands for this setting: Table 9, read-out: CMV pol Assay- IC50.
Where [3] appears, read: pol type CMV, Table 1, read-out: CMV pol Assay IC50.
The mark [4] stands for this setting: Table 11, read-out: CMV pol Assay IC50.
Setting [5] is: Table 10, CMV pol Assay, read-out: IC50.

Values joined by “and” are separate entries in the source; they are usually repeats but may differ in a detail not shown here. Equal values may be shown once. Read-outs that look alike come from different tables or passages of the source.

T1 sequence (P08546 whole entry): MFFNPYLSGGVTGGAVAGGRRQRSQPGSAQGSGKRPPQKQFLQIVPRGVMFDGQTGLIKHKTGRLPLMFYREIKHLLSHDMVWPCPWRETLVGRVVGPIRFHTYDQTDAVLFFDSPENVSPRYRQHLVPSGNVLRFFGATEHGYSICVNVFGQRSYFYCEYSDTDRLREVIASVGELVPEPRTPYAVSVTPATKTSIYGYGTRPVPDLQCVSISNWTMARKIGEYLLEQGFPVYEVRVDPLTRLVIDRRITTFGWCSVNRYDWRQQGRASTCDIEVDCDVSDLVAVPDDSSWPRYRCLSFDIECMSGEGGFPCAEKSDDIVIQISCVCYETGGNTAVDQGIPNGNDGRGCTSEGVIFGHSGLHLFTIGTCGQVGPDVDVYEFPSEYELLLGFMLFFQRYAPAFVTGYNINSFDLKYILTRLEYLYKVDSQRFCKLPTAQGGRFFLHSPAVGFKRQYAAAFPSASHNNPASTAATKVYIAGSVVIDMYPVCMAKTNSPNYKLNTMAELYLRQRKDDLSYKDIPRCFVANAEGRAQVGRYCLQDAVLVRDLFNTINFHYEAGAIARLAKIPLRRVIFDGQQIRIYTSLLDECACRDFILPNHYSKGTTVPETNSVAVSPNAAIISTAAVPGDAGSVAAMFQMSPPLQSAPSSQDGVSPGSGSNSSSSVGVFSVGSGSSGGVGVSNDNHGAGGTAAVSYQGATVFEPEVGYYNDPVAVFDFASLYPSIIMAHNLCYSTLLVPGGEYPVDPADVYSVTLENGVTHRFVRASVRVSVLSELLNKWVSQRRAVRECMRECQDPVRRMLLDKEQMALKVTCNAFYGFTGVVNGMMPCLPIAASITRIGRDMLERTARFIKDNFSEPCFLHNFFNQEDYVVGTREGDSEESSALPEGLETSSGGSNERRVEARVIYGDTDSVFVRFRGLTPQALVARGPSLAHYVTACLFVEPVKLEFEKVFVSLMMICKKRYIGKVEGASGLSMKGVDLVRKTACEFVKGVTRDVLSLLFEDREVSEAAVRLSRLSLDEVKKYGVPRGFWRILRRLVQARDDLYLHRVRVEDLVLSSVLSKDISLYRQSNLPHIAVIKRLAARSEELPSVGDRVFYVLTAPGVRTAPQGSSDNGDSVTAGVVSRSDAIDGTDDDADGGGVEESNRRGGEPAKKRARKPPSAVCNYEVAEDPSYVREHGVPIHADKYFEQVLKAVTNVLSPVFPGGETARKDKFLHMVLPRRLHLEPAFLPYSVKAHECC

`O=S(=O)(NCc1ccccc1)c1cc(Cl)c2cccnc2c1O` [Example 22, 5-Chloro-8-hydrxoy-N-(phenylmehtyl)-7-quinolinesulfonamide]: the “% Inhib” value was 98.2% and 99.7% (Conc 1.00e−004 M, Table 2); 68.9% and 78.3% (Conc 1.30e−005 M, Table 2); 90.7% and 95.2% (Conc 2.50e−005 M, Table 2); 96.7% and 98.6% (Conc 5.00e−005 M, Table 2); 33.3% and 51.5% (Conc 6.25e−006 M, Table 2). Under setting [1], the IC50 was 8.6 µM and 4.5 µM. Regarding `O=C(N[C@H](CO)Cc1ccc(O)cc1)c1ccc2cccnc2c1O`, the IC50 under setting [2] is 3.1 µM.

Take `O=C(NCc1cccc2ccccc12)c1ccc2cccnc2c1O`: the IC50 under setting [2] amounted to 3.7 µM.

Take `O=C(NC1=NC(=O)C(c2ccc(Cl)cc2)S1)c1cc(Br)c2cccnc2c1O` (stereo not drawn) [Example 6, 5-Bromo-N-[5-(4-chlorophenyl)-4,5-dihydro-4-oxo-2-thiazolyl]-8-hydroxy-7-quinolinecarboxamide]: under setting [3], the IC50 turned out to be 4.1 µM. In the case of `O=C(Nc1nnc(NC(C(=O)O)c2cccc3c2OCO3)s1)c1ccc2cccnc2c1O` (stereo not drawn), under setting [4], the IC50 was 18.9 µM.

In the case of `O=C(Nc1nnc(C(F)(F)F)s1)c1ccc2cccnc2c1O` [drawing 303], under setting [4], the IC50 is 71 µM.

Turning to `O=C(NCCSCc1c(Cl)cccc1Cl)c1ccc2cccnc2c1O`, the IC50 under setting [2] stood at 8.4 µM.

As to `O=C(Nc1cc([N+](=O)[O-])cc([N+](=O)[O-])c1)c1ccc2cccnc2c1O`, the half-maximal inhibitory concentration (IC50) under setting [5] worked out at 7.1 µM. For `C[C@@H](NC(=O)c1ccc2cccnc2c1O)c1cccc2ccccc12`, the IC50 under setting [2] is < 3.1 µM and 2.4 µM and 10.8 µM.

Turning to `Cc1ccc(Cl)c(NC(=O)c2ccc3cccnc3c2O)c1`, the IC50 under setting [5] was 7.5 µM. Take `O=C(NC1CCCc2ccccc21)c1ccc2cccnc2c1O` (stereo not drawn): the IC50 under setting [2] was found to be 7.6 µM. For `O=C(NCCC(c1ccccc1)c1ccccc1)c1ccc2cccnc2c1O`, the half-maximal inhibitory concentration (IC50) under setting [2] is less than 1.5 µM. Turning to `N#Cc1ccccc1NC(=O)c1ccc2cccnc2c1O`, the IC50 under setting [5] was greater than 50 µM.

For the compound `N#CC(NC(=O)c1ccc2cccnc2c1O)c1ccccc1` (stereo not drawn), where the note is “Table 14, read-out: IC50”, the IC50 is 54 µM. `CC(C)(C)OC(=O)[C@H](Cc1c[nH]c2ccccc12)Nc1nnc(NC(=O)c2ccc3cccnc3c2O)s1`: the half-inhibitory concentration (IC50) under setting [4] is less than 3.1 µM. `O=C(NCCc1ccc(Cl)cc1)c1ccc2cccnc2c1O`: under setting [2], the IC50 was found to be 6.7 µM.

Take `CC(C)(C)OC(=O)[C@H](Cc1ccc(O)cc1)Nc1nnc(NC(=O)c2ccc3cccnc3c2O)s1`: the IC50 under setting [4] is less than 3.1 µM.

Turning to `O=C(NCc1cc(Cl)cc(Cl)c1)c1ccc2cccnc2c1O`, the IC50 (Table 14, read-out: IC50) worked out at 27 µM. On to `O=C(Nc1cc(Cl)ccc1O)c1ccc2cccnc2c1O`, for which, under setting [5], the IC50 was 13.8 µM.

For the compound `Cc1noc(NS(=O)(=O)c2ccc(NC(=O)c3ccc4cccnc4c3O)cc2)c1C`, the IC50 under setting [5] was determined as 90 µM.

Take `CC(C)(C)OC(=O)[C@@H]1CCCN1c1nnc(NC(=O)c2ccc3cccnc3c2O)s1`: the half-maximal inhibitory concentration (IC50) under setting [4] was found to be 13.9 µM. With `O=C(NCCc1ccc(Br)cc1)c1ccc2cccnc2c1O`, the IC50 under setting [2] came out at 5 µM. In the case of `O=C(Nc1ccc2ccccc2c1)c1ccc2cccnc2c1O`, the IC50 under setting [5] stood at 15.5 µM. Regarding `O=C(N[C@H]1CC[C@H](OC(=O)c2ccc3cccnc3c2O)CC1)c1ccc2cccnc2c1O`, the IC50 (Table 14, read-out: IC50) is 4 µM. Regarding `Cc1ccccc1CNC(=O)c1ccc2cccnc2c1O`, under setting [2], the IC50 was 23.2 µM. On to `O=C(Nc1ccc(Cl)c(Cl)c1)c1ccc2cccnc2c1O`, for which the IC50 under setting [5] is 32.7 µM. As to `COc1ccc(NC(=O)c2ccc3cccnc3c2O)c([N+](=O)[O-])c1`, the half-inhibitory concentration (IC50) under setting [5] turned out to be 22.4 µM. For `C[C@H](NC(=O)c1ccc2cccnc2c1O)c1cccc2ccccc12`, under setting [2], the IC50 stood at 3 µM. On to `O=C(Nc1nnc(Br)s1)c1ccc2cccnc2c1O` [drawing 304], for which the IC50 under setting [4] was determined as 93.2 µM. Consider `CC1CCCCC1NC(=O)c1ccc2cccnc2c1O` (stereo not drawn), for which the IC50 under setting [2] is < 3.1 µM and > 10 µM. The same measure, in the same setting: as for `O=C(NCc1cccc(C(F)(F)F)c1)c1ccc2cccnc2c1O`, the figure is 8.5 µM.

As to `O=C(Nc1nnc(N[C@@H](Cc2c[nH]c3ccccc23)C(=O)O)s1)c1ccc2cccnc2c1O`, the IC50 under setting [4] amounted to 8.5 µM. Regarding `CC(C)(C)OC(=O)[C@H](Cc1ccc(OC(C)(C)C)cc1)Nc1nnc(NC(=O)c2ccc3cccnc3c2O)s1`, the IC50 under setting [4] turned out to be 4.5 µM. Consider `Cc1ccccc1NC(=O)c1ccc2cccnc2c1O`, for which, under setting [5], the half-inhibitory concentration (IC50) is 13.4 µM. Turning to `Cc1ccc2c(Cl)cc(S(=O)(=O)NCc3ccc(F)cc3)c(O)c2n1` [Example 30], the “% Inhib” value is, setting by setting: (Conc 1.00e−004 M, Table 2) 97%; (Conc 1.30e−005 M, Table 2) 73.4%; (Conc 2.50e−005 M, Table 2) 87.5%; (Conc 3.13e−006 M, Table 2) 42.6%; (Conc 5.00e−005 M, Table 2) 95.4%; (Conc 6.25e−006 M, Table 2) 59.9%. For the same compound, the IC50 under setting [1] came out at 4.3 µM. As to `O=C(Nc1nnc(-c2ccc(Cl)cc2)s1)c1ccc2cccnc2c1O` [Example 14, N-[5-(4-Chlorophenyl)-1,3,4-thiadiazol-2-yl]-8-hydroxy-7-quinolinecarboxamide], under setting [3], the IC50 was determined as 23.4 µM. On to `O=C(N[C@@H](CO)C(=O)OCc1ccccc1)c1ccc2cccnc2c1O`, for which, under setting [2], the IC50 is 11.3 µM and 9.2 µM. Take `O=C(N[C@H](CO)Cc1ccccc1)c1ccc2cccnc2c1O`: for the setting “Table 14, 25 uM”, testing at 25 µM gave an inhibition of 93%. Take `O=C(Nc1cccc2cccnc12)c1ccc2cccnc2c1O`: the IC50 under setting [5] is 10.3 µM.

On to `O=C(Nc1ccccc1-n1cccc1)c1ccc2cccnc2c1O`, for which, under setting [5], the IC50 came to 27.9 µM. For the compound `O=C(NCc1ccccc1C(F)(F)F)c1ccc2cccnc2c1O`, the IC50 under setting [2] was 15.7 µM. With `O=C(NCc1ccc(Cl)cc1)c1ccc2cccnc2c1O` [Example 1, N-[(4-Chlorophenyl)methyl]-8-hydroxy-7-quinolinecarboxamide], the IC50 under setting [3] amounted to 10.2 µM.

As to `O=C(Nc1ccc([N+](=O)[O-])cc1)c1ccc2cccnc2c1O`, the IC50 under setting [5] was determined as 48.4 µM. Turning to `Cc1ccc(NC(=O)c2ccc3cccnc3c2O)c(C)c1` [drawing 279], the IC50 under setting [5] was found to be 8.1 µM. As for `COc1ccc(Cl)c(NC(=O)c2ccc3cccnc3c2O)c1`, under setting [5], the IC50 amounted to 7 µM.

`Cc1ccc(F)cc1NC(=O)c1ccc2cccnc2c1O` [drawing 282]: the 50% inhibitory concentration (IC50) under setting [5] was determined as 6.6 µM. Same read-out and setting: the figure for `O=C(Nc1ccccc1Br)c1ccc2cccnc2c1O` is 16 µM.

Regarding `COC(=O)[C@@H](Cc1ccccc1)Nc1nnc(NC(=O)c2ccc3cccnc3c2O)s1`, the IC50 under setting [4] worked out at 9.4 µM. Regarding `O=C(Nc1ccc(F)c(F)c1)c1ccc2cccnc2c1O`, the IC50 under setting [5] was 82.9 µM.

Turning to `O=C(Nc1cccc2ccccc12)c1ccc2cccnc2c1O`, the IC50 under setting [5] was 4.9 µM. As for `CC(C)C[C@H](NC(=O)c1ccc2cccnc2c1O)C(=O)OC(C)(C)C`, for the setting “Table 14, read-out: IC50”, the IC50 is 51 µM.

For `O=C(NCCNc1ccc([N+](=O)[O-])cn1)c1ccc2cccnc2c1O`, the IC50 (Table 14, read-out: IC50) is 42 µM. On to `O=C(N[C@@H](c1ccccc1)[C@H](O)c1ccccc1)c1ccc2cccnc2c1O`, for which, under setting [2], the IC50 was 2.2 µM and 4.7 µM. With `CC1CCCC(NC(=O)c2ccc3cccnc3c2O)C1C` (stereo not drawn), the 50% inhibitory concentration (IC50) under setting [2] was found to be 8.4 µM. On to `Cc1ccc2c(Cl)cc(S(=O)(=O)NCc3cccc4ccccc34)c(O)c2n1` [Example 31, 5-Chloro-8-hydroxy-2-methyl-N-(1-naphthalenylmethyl)-7-quinolinesulfonamide], for which the “% Inhib” value was found to be 97.3% (Conc 1.00e−004 M, Table 2); 88.2% (Conc 1.00e−005 M, Table 2); 22.7% (Conc 1.25e−006 M, Table 2); 97.3% (Conc 1.30e−005 M, Table 2); 97.8% (Conc 2.50e−005 M, Table 2); 38.5% (Conc 2.50e−006 M, Table 2). Moreover, the “% Inhib” value runs as follows: (Conc 3.13e−006 M, Table 2) 82.9%; (Conc 3.13e−007 M, Table 2) −7.9%; (Conc 5.00e−005 M, Table 2) 97.8%; (Conc 5.00e−006 M, Table 2) 55%; (Conc 6.25e−006 M, Table 2) 95%; (Conc 6.25e−007 M, Table 2) 20%. The IC50 under setting [1] is < 3.1 µM and 3.7 µM. Take `N#CC(Nc1nnc(NC(=O)c2ccc3cccnc3c2O)s1)c1ccc2c(c1)OCO2` (stereo not drawn): the IC50 under setting [4] was determined as 3.1 µM. As for `CC(NC(=O)c1ccc2cccnc2c1O)c1ccccc1` (stereo not drawn), the IC50 under setting [2] worked out at 22.2 µM. `O=C(NCCCCc1ccccc1)c1ccc2cccnc2c1O`: under setting [2], the half-maximal inhibitory concentration (IC50) was found to be 7.4 µM. `O=C(Nc1ccc2c(C(F)(F)F)cc(=O)oc2c1)c1ccc2cccnc2c1O` yielded an IC50 (IC50 uM, Table 10, CMV pol Assay) of 9.5 µM. Consider `O=C(c1ccc2cccnc2c1O)N1CCN(c2ccc(Cl)c(Cl)c2)CC1`, for which the IC50 (Table 14, read-out: IC50) was 14 µM. In the case of `N#Cc1ccc(NC(=O)c2ccc3cccnc3c2O)cc1` [drawing 210], the IC50 under setting [5] is greater than 100 µM.

As a reminder, the IC50 is the concentration at which inhibition is half-maximal. Usually inhibition stands for the change of the read-out against control, counted positive when it falls. A low value points to little suppression.
